Results as given in patent publication US11400072B2, “Methods for the treatment of nonalcoholic fatty liver disease and/or lipodystrophy” (Coherus Biosciences, Inc., priority 2015, dated 2022).

Tested on: obese patients with NASH
Assay: 48 week double blind, placebo controlled, randomized, parallel group study of INT131 on hepatic histology of obese patients with NASH
Type: in vivo, human
Settings: subjects receiving either 1.25 or 2 mg of INT131 once per day
Excerpt: A 48 week double blind, placebo controlled, randomized, parallel group study will be conducted to evaluate the effect of INT131 on hepatic histology of obese patients with NASH. Specifically, at least 225 subjects are chosen that fit the following criteria: (1) age 18 to 75 years old; (2) body mass index (BMI) greater than 25 kg/m^2 and less than 40 kg/m^2; (3) NAFLD fibrosis score greater than or equal to 1.0 and less than 4.0; (4) average daily alcohol consumption of 10 g/day or less; (5) NAFLD activity score (“NAS”) of 3 or greater; (6) histologically proven steatohepatitis on a diagnostic liver biopsy performed within 6 months of randomization, confirmed central laboratory reading of slides (steatosis >5% lobular inflammation, any amount of ballooning); (7) women who meet the following criteria: women of childbearing potential with a negative urine pregnancy test at Screening who agree to use 1 or more approved methods of birth control during the study. Approved methods of birth control are: hormonal contraception, intrauterine device, diaphragm plus spermicide, female condom plus spermicide. […]

[1] = week 0 compared to week 48, statistically significant versus placebo group

Q: `O=S(=O)(Nc1cc(Cl)c(Oc2cnc3ccccc3c2)c(Cl)c1)c1ccc(Cl)cc1Cl` [INT131, 2,4-Dichloro-N-[3,5-dichloro-4-(3-quinolinyloxy)phenyl]benzenesulfonamide] was tested. Which “liver function test(s)” value did it give?
A: The value was “improvement”.

Q: And the “most if not all other metabolic parameters outlined above” value?
A: Its value is “improvement”.

Q: What about the “NAS (NAFLD activity score)” value [1] of the same compound?
A: The value was “reduction”.

Q: What about the ballooning grade [1] of the same compound?
A: The ballooning grade was “reduction”.

Q: What about the fibrosis stage [1] of the same compound?
A: The fibrosis stage was “reduction”.

Q: And the “portal and lobular inflammation grade” value [1]?
A: The value was “reduction”.

Q: What about the steatosis grade [1] of the same compound?
A: Its steatosis grade is “reduction”.
